The target of one test is human TLR9 (Homo sapiens (Human), UniProt Q9NR96). The experiment in a line: TLR9 inhibition reporter assay (HEK-Blue SEAP).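 Further: SEAP driven by an IFN-β minimal promoter with NF-κB and AP-1 sites, read after 22 h, compounds dosed 0.05 nM–50 µM, inhibition scaled between agonist plus DMSO and reference-inhibitor wells.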 Conditions: read-out: TLR9 IC50; HEK-Blue cells overexpressing human TLR9, SEAP reporter, ODN2006 5 nM. Background: Reporter assays use an easily measured gene product as a stand-in for the process of interest.
The target in a further test is human TLR7 (Homo sapiens (Human), UniProt Q9NYK1). As to the kind of experiment: TLR7 inhibition reporter assay (HEK-Blue SEAP). It counts as cell-based. The settings on record: HEK-Blue cells overexpressing human TLR7, SEAP reporter, gardiquimod 7.5 μM.
Another test concerns the target human TLR8 (Homo sapiens (Human), UniProt Q9NR97). The experiment in a line: TLR8 inhibition reporter assay (HEK-Blue SEAP).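 Further: SEAP driven by IFN-β minimal promoter carrying NF-κB and AP-1 sites, compounds dosed 0.05 nM to 50 µM for 22 h, inhibition scaled between agonist-plus-DMSO and reference-inhibitor wells.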 The settings on record: read-out: TLR8 IC50; HEK-Blue cells overexpressing human TLR8, SEAP reporter, R848 15.9 μM.

32 compounds from US10544143B2, “4-azaindole compounds” (BRISTOL-MYERS SQUIBB COMPANY, priority 2017, dated 2020) can be followed below.

Broadly, the IC50 is the point on the concentration scale where inhibition reaches its midpoint.

The structures appear in SMILES notation.

human TLR9, sequence (Q9NR96 26-1032): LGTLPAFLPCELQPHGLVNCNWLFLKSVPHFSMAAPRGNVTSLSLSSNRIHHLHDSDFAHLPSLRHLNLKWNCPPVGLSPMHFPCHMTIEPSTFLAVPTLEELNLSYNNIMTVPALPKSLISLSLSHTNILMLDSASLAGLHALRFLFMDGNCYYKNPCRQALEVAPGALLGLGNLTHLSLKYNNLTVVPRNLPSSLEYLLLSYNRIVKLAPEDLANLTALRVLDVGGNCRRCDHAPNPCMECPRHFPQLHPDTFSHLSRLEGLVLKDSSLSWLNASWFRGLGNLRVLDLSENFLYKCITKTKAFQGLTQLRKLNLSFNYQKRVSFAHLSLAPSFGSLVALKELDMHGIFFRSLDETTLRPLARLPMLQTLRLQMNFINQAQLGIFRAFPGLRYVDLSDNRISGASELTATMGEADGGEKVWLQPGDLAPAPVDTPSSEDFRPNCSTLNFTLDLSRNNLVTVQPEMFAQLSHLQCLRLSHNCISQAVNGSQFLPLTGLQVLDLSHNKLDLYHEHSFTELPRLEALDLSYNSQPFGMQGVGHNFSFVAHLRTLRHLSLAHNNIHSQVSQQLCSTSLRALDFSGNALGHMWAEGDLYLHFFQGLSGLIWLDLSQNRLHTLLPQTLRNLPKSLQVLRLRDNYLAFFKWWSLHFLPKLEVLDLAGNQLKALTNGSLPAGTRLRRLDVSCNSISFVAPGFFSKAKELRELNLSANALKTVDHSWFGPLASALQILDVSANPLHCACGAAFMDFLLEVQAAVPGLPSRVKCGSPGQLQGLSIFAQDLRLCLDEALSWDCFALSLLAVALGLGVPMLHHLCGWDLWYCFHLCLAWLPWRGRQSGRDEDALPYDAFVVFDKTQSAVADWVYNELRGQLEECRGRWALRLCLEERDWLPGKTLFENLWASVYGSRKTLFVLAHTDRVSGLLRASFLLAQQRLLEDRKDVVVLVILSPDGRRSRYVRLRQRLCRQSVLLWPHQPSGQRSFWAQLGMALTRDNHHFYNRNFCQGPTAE
human TLR8, sequence (Q9NR97 27-1041): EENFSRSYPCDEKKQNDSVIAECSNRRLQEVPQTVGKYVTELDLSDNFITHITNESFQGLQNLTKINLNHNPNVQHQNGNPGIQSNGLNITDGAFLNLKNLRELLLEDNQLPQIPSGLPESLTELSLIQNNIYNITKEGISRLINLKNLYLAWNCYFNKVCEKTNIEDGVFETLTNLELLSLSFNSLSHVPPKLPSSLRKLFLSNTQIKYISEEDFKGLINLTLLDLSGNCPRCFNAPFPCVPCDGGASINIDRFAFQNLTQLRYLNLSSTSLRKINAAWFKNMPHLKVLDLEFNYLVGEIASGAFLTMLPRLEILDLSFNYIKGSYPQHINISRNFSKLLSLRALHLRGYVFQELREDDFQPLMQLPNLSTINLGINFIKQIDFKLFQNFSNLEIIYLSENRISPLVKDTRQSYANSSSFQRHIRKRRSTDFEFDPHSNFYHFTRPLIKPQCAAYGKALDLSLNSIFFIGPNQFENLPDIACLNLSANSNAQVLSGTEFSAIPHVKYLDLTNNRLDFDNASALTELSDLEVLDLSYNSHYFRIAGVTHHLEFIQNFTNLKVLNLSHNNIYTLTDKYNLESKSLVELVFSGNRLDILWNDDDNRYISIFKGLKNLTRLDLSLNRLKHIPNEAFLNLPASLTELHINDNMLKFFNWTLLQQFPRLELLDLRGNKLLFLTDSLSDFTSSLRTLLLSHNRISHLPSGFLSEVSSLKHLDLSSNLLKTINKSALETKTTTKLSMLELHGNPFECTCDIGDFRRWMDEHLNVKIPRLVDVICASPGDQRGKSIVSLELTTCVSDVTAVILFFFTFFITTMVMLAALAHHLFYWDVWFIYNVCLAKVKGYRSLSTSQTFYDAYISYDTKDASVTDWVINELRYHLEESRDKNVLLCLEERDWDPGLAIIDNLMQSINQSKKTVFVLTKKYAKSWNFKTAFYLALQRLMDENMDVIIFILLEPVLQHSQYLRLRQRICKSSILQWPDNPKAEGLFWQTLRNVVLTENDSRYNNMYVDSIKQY
human TLR7, sequence (Q9NYK1 27-1049): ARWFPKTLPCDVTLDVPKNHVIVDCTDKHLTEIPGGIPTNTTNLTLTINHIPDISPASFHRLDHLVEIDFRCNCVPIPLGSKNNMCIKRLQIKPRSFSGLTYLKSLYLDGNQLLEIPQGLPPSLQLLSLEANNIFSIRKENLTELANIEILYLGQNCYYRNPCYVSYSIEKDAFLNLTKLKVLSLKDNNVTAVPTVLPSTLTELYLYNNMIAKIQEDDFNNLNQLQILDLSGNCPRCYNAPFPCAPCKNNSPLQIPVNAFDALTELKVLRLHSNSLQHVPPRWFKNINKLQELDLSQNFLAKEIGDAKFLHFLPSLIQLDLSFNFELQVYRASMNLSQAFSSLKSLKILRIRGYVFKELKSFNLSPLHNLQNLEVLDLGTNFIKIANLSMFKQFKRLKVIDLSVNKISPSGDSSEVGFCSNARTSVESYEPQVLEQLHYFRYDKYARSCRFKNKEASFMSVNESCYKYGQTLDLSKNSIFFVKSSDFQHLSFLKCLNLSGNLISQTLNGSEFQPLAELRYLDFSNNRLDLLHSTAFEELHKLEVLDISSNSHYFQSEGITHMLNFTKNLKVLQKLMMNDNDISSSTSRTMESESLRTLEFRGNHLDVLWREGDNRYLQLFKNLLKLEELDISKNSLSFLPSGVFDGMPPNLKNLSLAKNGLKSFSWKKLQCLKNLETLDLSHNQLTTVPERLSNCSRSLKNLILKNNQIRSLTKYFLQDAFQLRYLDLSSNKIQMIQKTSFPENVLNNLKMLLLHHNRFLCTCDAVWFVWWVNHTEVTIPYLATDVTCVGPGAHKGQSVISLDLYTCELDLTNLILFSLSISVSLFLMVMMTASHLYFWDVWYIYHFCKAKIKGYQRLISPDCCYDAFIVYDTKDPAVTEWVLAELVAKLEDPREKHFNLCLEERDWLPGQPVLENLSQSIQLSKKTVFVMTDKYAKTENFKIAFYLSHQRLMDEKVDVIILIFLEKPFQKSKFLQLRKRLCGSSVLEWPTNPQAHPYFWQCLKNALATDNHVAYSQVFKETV

Consider `CNC(=O)CNC1CCC(c2ccc3[nH]c(-c4cc(OC)c5ncnn5c4)c(C(C)C)c3n2)C1` (stereo not drawn) [Example 719], for which the half-inhibitory concentration (IC50) at human TLR9 was 2.6 µM; against human TLR7, 0.0028 µM; on human TLR8, 0.007 µM.
The corresponding values for `COc1cc(-c2[nH]c3ccc(C4CCC(N(CC(N)=O)CC(N)=O)C4)nc3c2C(C)C)cn2ncnc12` (stereo not drawn) [Example 720] are 20.3 µM, 0.013 µM and 0.094 µM.
The corresponding values for `COc1cc(-c2[nH]c3ccc(C4CCC(NC5CCOCC5)C4)nc3c2C(C)C)cn2ncnc12` (stereo not drawn) [Example 721] are 0.982 µM, 0.00041 µM and 0.00053 µM.
For `COc1cc(-c2[nH]c3ccc(C4CCC(N(CC(=O)N(C)C)CC(=O)N(C)C)C4)nc3c2C(C)C)cn2ncnc12` (stereo not drawn) [Example 722] the same measures were 18.5 µM, 0.0065 µM and 0.046 µM.
Take `COc1cc(-c2[nH]c3ccc(C4CCC(NC(C)C)C4)nc3c2C(C)C)cn2ncnc12` (stereo not drawn) [Example 723]: the IC50 was 4.39 µM at human TLR9, 0.00099 µM at human TLR7 and 0.0024 µM on human TLR8.
The corresponding values for `COc1cc(-c2[nH]c3ccc(C4CCC(NC(C)C5CC5)C4)nc3c2C(C)C)cn2ncnc12` (stereo not drawn) [Example 724] are 2.19 µM, 0.00063 µM and 0.002 µM.
For `CNC(=O)CNC1CCC(c2ccc3[nH]c(-c4cc(OC)c5ncnn5c4)c(C(C)C)c3n2)C1` (stereo not drawn) [Example 725] the same measures were 2.06 µM, 0.00062 µM and 0.0019 µM.
For `COc1cc(-c2[nH]c3ccc(C4CCC(N(CCS(C)(=O)=O)CCS(C)(=O)=O)C4)nc3c2C(C)C)cn2ncnc12` (stereo not drawn) [Example 726] the same measures were 39.4 µM, 1.36 µM and 2.09 µM.
Take `COc1cc(-c2[nH]c3ccc(C4CCC(NC5CCOCC5)C4)nc3c2C(C)C)cn2ncnc12` (stereo not drawn) [Example 727]: the figures for the IC50 at human TLR9, at human TLR7 and on human TLR8 were 3.35 µM, 0.0036 µM and 0.0032 µM, respectively.
The corresponding values for `COc1cc(-c2[nH]c3ccc(C4CCC(NCC5(C)COC5)C4)nc3c2C(C)C)cn2ncnc12` (stereo not drawn) [Example 728] are 3.54 µM, 0.00074 µM and 0.00067 µM.
With `COc1cc(-c2[nH]c3ccc(C4CCC(NC5CCOC(C)(C)C5)C4)nc3c2C(C)C)cn2ncnc12` (stereo not drawn) [Example 729], the IC50 on human TLR9 amounted to 1.94 µM; on human TLR7, 0.0011 µM; on human TLR8, 0.0013 µM.
For `COc1cc(-c2[nH]c3ccc(C4CCC(N(CC#N)CC#N)C4)nc3c2C(C)C)cn2ncnc12` (stereo not drawn) [Example 730] the same measures were 10.5 µM, 0.0033 µM and 0.023 µM.
Regarding `COc1cc(-c2[nH]c3cc(C)c(C(=O)NC4CCN(C(C)C)CC4)nc3c2C(C)C)cn2ncnc12` [Example 731], the IC50 at human TLR9 was 1.64 µM; against human TLR7, 0.0046 µM; on human TLR8 it was 0.015 µM.
The corresponding values for `COc1cc(-c2[nH]c3cc(C)c(C(=O)N(C)CCN(C)C)nc3c2C(C)C)cn2ncnc12` [Example 732] are 4.83 µM, 0.01 µM and 0.07 µM.
For `COc1cc(-c2[nH]c3cc(C)c(C(=O)N4CCN(C(C)=O)CC4)nc3c2C(C)C)cn2ncnc12` [Example 733] the same measures were above 50 µM, 0.053 µM and 1.01 µM.
With `COc1cc(-c2[nH]c3cc(C)c(C(=O)N(C)CCC(F)(F)F)nc3c2C(C)C)cn2ncnc12` [Example 734], the half-inhibitory concentration (IC50) on human TLR9 was above 50 µM; against human TLR7, 0.026 µM; on human TLR8, 0.252 µM.
`Cc1cc(-c2[nH]c3ccc(-c4cnn(C5CCNCC5)c4)nc3c2C(C)C)cn2ncnc12` [Example 735]: the IC50 was determined as 0.262 µM at human TLR9, 0.025 µM at human TLR7 and 0.061 µM at human TLR8.
The corresponding values for `Cc1cc(-c2[nH]c3ccc(-c4cnn(CCN5CCOCC5)c4)nc3c2C(C)C)cn2ncnc12` [Example 736] are above 50 µM, 0.631 µM and 0.269 µM.
The corresponding values for `Cc1c(-c2[nH]c3ccc(N4C[C@@H](C)NC[C@@H]4C)nc3c2C(C)C)cn2ncnc2c1C` [Example 737, 6-(5-((2S,5R)-2,5-dimethylpiperazin-1-yl)-3-isopropyl-1H-pyrrolo[3,2-b]pyridin-2-yl)-7,8-dimethyl-[1,2,4]triazolo[1,5-a]pyridine] are 7.77 µM, 0.00059 µM and 0.00055 µM.
The corresponding values for `Cc1c(-c2[nH]c3ccc(N4C[C@@H](C)N(C(=O)CN5CCCC5)C[C@@H]4C)nc3c2C(C)C)cn2ncnc2c1C` [Example 738, 1-((2R,5S)-4-(2-(7,8-dimethyl-[1,2,4]triazolo[1,5-a]pyridin-6-yl)-3-isopropyl-1H-pyrrolo[3,2-b]pyridin-5-yl)-2,5-dimethylpiperazin-1-yl)-2-(pyrrolidin-1-yl)ethan-1-one] are 6.23 µM, 0.00046 µM and 0.00089 µM.
With `Cc1c(-c2[nH]c3ccc(N4C[C@@H](C)N(C(=O)CCN5CCCC5)C[C@@H]4C)nc3c2C(C)C)cn2ncnc2c1C` [Example 739, 1-((2R,5S)-4-(2-(7,8-dimethyl-[1,2,4]triazolo[1,5-a]pyridin-6-yl)-3-isopropyl-1H-pyrrolo[3,2-b]pyridin-5-yl)-2,5-dimethylpiperazin-1-yl)-3-(pyrrolidin-1-yl)propan-1-one], the IC50 was determined as 5.32 µM at human TLR9, 0.00085 µM against human TLR7 and 0.0016 µM at human TLR8.
For `Cc1c(-c2[nH]c3ccc(N4CC5(CNC5)C4)nc3c2C(C)C)cn2ncnc2c1C` [Example 740, 6-(3-isopropyl-5-(2,6-diazaspiro[3.3]heptan-2-yl)-1H-pyrrolo[3,2-b]pyridin-2-yl)-7,8-dimethyl-[1,2,4]triazolo[1,5-a]pyridine] the same measures were 0.623 µM, 0.0022 µM and 0.0051 µM.
The corresponding values for `Cc1c(-c2[nH]c3ccc(N4CC5(CN(C)C5)C4)nc3c2C(C)C)cn2ncnc2c1C` [Example 741, 6-(3-isopropyl-5-(6-methyl-2,6-diazaspiro[3.3]heptan-2-yl)-1H-pyrrolo[3,2-b]pyridin-2-yl)-7,8-dimethyl-[1,2,4]triazolo[1,5-a]pyridine] are 3.03 µM, 0.0019 µM and 0.0065 µM.
For `Cc1c(-c2[nH]c3ccc(N4CC5(CN(CC(=O)N(C)C)C5)C4)nc3c2C(C)C)cn2ncnc2c1C` [Example 742, 2-(6-(2-(7,8-dimethyl-[1,2,4]triazolo[1,5-a]pyridin-6-yl)-3-isopropyl-1H-pyrrolo[3,2-b]pyridin-5-yl)-2,6-diazaspiro[3.3]heptan-2-yl)-N,N-dimethylacetamide] the same measures were 4.58 µM, 0.0029 µM and 0.0031 µM.
As for `Cc1c(-c2[nH]c3ccc(N4CC5(CN(C(=O)CN(C)C)C5)C4)nc3c2C(C)C)cn2ncnc2c1C` [Example 743, 1-(6-(2-(7,8-dimethyl-[1,2,4]triazolo[1,5-a]pyridin-6-yl)-3-isopropyl-1H-pyrrolo[3,2-b]pyridin-5-yl)-2,6-diazaspiro[3.3]heptan-2-yl)-2-(dimethylamino)ethan-1-one], the figures for the IC50 on human TLR9, at human TLR7 and at human TLR8 were 1.88 µM, 0.0036 µM and 0.0084 µM, respectively.
For `CCN1CC2(C1)CN(c1ccc3[nH]c(-c4cn5ncnc5c(C)c4C)c(C(C)C)c3n1)C2` [Example 744, 6-(5-(6-ethyl-2,6-diazaspiro[3.3]heptan-2-yl)-3-isopropyl-1H-pyrrolo[3,2-b]pyridin-2-yl)-7,8-dimethyl-[1,2,4]triazolo[1,5-a]pyridine] the same measures were 3.06 µM, 0.002 µM and 0.0071 µM.
The corresponding values for `Cc1c(-c2[nH]c3ccc(C4CC5(CNC5)C4)nc3c2C(C)C)cn2ncnc2c1C` [Example 745, 6-(3-isopropyl-5-(2-azaspiro[3.3]heptan-6-yl)-1H-pyrrolo[3,2-b]pyridin-2-yl)-7,8-dimethyl-[1,2,4]triazolo[1,5-a]pyridine] are 2.45 µM, 0.0022 µM and 0.0058 µM.
For `Cc1c(-c2[nH]c3ccc(C4CC5(C4)CN(C(=O)CCN(C)C)C5)nc3c2C(C)C)cn2ncnc2c1C` [Example 746, 1-(6-(2-(7,8-dimethyl-[1,2,4]triazolo[1,5-a]pyridin-6-yl)-3-isopropyl-1H-pyrrolo[3,2-b]pyridin-5-yl)-2-azaspiro[3.3]heptan-2-yl)-3-(dimethylamino)propan-1-one] the same measures were 3.11 µM, 0.0011 µM and 0.01 µM.
With `Cc1c(-c2[nH]c3ccc(N4[C@@H]5CC[C@H]4CN(C(=O)CN(C)C)C5)nc3c2C(C)C)cn2ncnc2c1C` [Example 747], the IC50 is 7.38 µM at human TLR9, 0.00059 µM against human TLR7 and 0.0041 µM at human TLR8.
The corresponding values for `Cc1c(-c2[nH]c3ccc(N4[C@@H]5CC[C@H]4CN(CCS(C)(=O)=O)C5)nc3c2C(C)C)cn2ncnc2c1C` [Example 748] are 37.9 µM, 0.0075 µM and 0.015 µM.
The corresponding values for `Cc1c(-c2[nH]c3ccc(N4[C@@H](C)CN(C(=O)CN(C)C)C[C@@H]4C)nc3c2C(C)C)cn2ncnc2c1C` [Example 752] are 10.3 µM, 0.00038 µM and 0.00053 µM.
The corresponding values for `Cc1c(-c2[nH]c3ccc(N4[C@@H](C)CN(CCC(N)=O)C[C@@H]4C)nc3c2C(C)C)cn2ncnc2c1C` [Example 753] are 27.9 µM, […] and 0.012 µM.
